This experiment deals with T1, Human KLK1 (Homo sapiens, UniProt P06870).
T1 construct: purchased Callbiochem (Calbiochem)
T1 sequence (P06870 25-262): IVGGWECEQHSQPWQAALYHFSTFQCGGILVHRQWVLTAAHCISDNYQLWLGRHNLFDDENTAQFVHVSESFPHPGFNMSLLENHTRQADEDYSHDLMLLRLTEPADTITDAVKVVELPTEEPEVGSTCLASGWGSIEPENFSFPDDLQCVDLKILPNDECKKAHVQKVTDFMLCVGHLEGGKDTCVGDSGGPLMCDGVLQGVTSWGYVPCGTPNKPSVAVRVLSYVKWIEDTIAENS
Description: Determination of the IC50 for KLK1 (fluorogenic substrate H-DVal-Leu-Arg-AFC). The format is biochemical. As to conditions: 37° C. Here is the method: Determination of the IC50 for KLK1
KLK1 inhibitory activity in vitro was determined using standard published methods (see e.g. Johansen et al., Int. J. Tiss. Reac. 1986, 8, 185; Shori et al., Biochem. Pharmacol., 1992, 43, 1209; Stürzebecher et al., Biol. Chem. Hoppe-Seyler, 1992, 373, 1025). Human KLK1 (Callbiochem) was incubated at 37° C. with the fluorogenic substrate H-DVal-Leu-Arg-AFC and various concentrations of the test compound. Residual enzyme activity (initial rate of reaction) was determined by measuring the change in optical absorbance at 410 nm and the IC50 value for the test compound was determined.
As usually defined, the IC50 is the concentration needed to halve the response being measured. Higher therefore signals weaker potency. The compound `CCC(C)[C@@H](N)C(=O)N[C@@H](Cc1ccc(O)cc1)C(=O)NCc1ccc(N)nc1` (stereo partly drawn) [Example 37, (R)-2-Amino-3-methyl-pentanoic acid [(S)-1-[(6-amino-pyridin-3-ylmethyl)-carbamoyl]-2-(4-hydroxy-phenyl)-ethyl]-amide] showed an IC50 of 626 nM.
The figure for `CCC(C)[C@@H](N)C(=O)N[C@@H](Cc1cc(F)c(F)cc1F)C(=O)NCc1ccc(N)nc1` (stereo partly drawn) [Example 38, (R)-2-Amino-3-methyl-pentanoic acid [(S)-1-[(6-amino-pyridin-3-ylmethyl)-carbamoyl]-2-(2,4,5-trifluoro-phenyl)-ethyl]-amide] is 9.2 nM; for `CCC(C)[C@@H](N)C(=O)N[C@@H](Cc1cc(F)cc(F)c1)C(=O)NCc1ccc(N)nc1` (stereo partly drawn) [Example 39, (R)-2-Amino-3-methyl-pentanoic acid [(S)-1-[(6-amino-pyridin-3-ylmethyl)-carbamoyl]-2-(3,5-difluoro-phenyl)-ethyl]-amide] it is 5.8 nM.
As for `CCC(C)[C@@H](N)C(=O)N[C@@H](Cc1c[nH]c2ccccc12)C(=O)NCc1ccc(N)nc1` (stereo partly drawn) [Example 40, (R)-2-Amino-3-methyl-pentanoic acid [(S)-1-[(6-amino-pyridin-3-ylmethyl)-carbamoyl]-2-(1H-indol-3-yl)-ethyl]-amide], the IC50 worked out at 6.6 nM.
The value for `CCC(C)[C@@H](N)C(=O)N[C@@H](Cc1csc2ccccc12)C(=O)NCc1ccc(N)nc1` (stereo partly drawn) [Example 41, (R)-2-Amino-3-methyl-pentanoic acid {(S)-1-[(6-amino-pyridin-3-ylmethyl)-carbamoyl]-2-benzo[b]thiophen-3-yl-ethyl}-amide] was 0.76 nM.
`CCC(C)[C@@H](NC)C(=O)N[C@@H](Cc1cccc(C(F)(F)F)c1)C(=O)NCc1ccc(N)nc1` (stereo partly drawn) [Example 42, (R)-3-Methyl-2-methylamino-pentanoic acid [(S)-1-[(6-amino-pyridin-3-ylmethyl)-carbamoyl]-2-(3-trifluoromethyl-phenyl)-ethyl]-amide]: it took 1.4 nM to reach half-maximal inhibition (IC50).
Compound `CCC(C)[C@@H](NC)C(=O)N[C@@H](Cc1ccc(F)c(F)c1)C(=O)NCc1ccc(N)nc1` (stereo partly drawn) [Example 43, (R)-3-Methyl-2-methylamino-pentanoic acid [(S)-1-[(6-amino-pyridin-3-ylmethyl)-carbamoyl]-2-(3,4-difluoro-phenyl)-ethyl]-amide] yielded an IC50 of 2.9 nM.
Compound `CCC(C)[C@@H](NC)C(=O)N[C@@H](Cc1ccc(F)cc1)C(=O)NCc1ccc(N)nc1` (stereo partly drawn) [Example 44, (R)-3-Methyl-2-methylamino-pentanoic acid [(S)-1-[(6-amino-pyridin-3-ylmethyl)-carbamoyl]-2-(4-fluoro-phenyl)-ethyl]-amide] had an IC50 of 5.4 nM.
Take `CCC(C)[C@@H](NC)C(=O)N[C@@H](Cc1cccc(Cl)c1)C(=O)NCc1ccc(N)nc1` (stereo partly drawn) [Example 45, (R)-3-Methyl-2-methylamino-pentanoic acid [(S)-1-[(6-amino-pyridin-3-ylmethyl)-carbamoyl]-2-(3-chloro-phenyl)-ethyl]-amide]: half-maximal inhibition (IC50) was put at 3.1 nM.
The figure for `CCC(C)[C@@H](NC)C(=O)N[C@@H](Cc1ccc(Cl)cc1)C(=O)NCc1ccc(N)nc1` (stereo partly drawn) [Example 46, (R)-3-Methyl-2-methylamino-pentanoic acid [(S)-1-[(6-amino-pyridin-3-ylmethyl)-carbamoyl]-2-(4-chloro-phenyl)-ethyl]-amide] is 1.2 nM; for `CCC(C)[C@@H](NC)C(=O)N[C@@H](Cc1ccc(O)cc1)C(=O)NCc1ccc(N)nc1` (stereo partly drawn) [Example 47, (R)-3-Methyl-2-methylamino-pentanoic acid [(S)-1-[(6-amino-pyridin-3-ylmethyl)-carbamoyl]-2-(4-hydroxy-phenyl)-ethyl]-amide] it is 316 nM.
In turn, `CCC(C)[C@@H](NC)C(=O)N[C@@H](Cc1cc(F)c(F)cc1F)C(=O)NCc1ccc(N)nc1` (stereo partly drawn) [Example 48, (R)-3-Methyl-2-methylamino-pentanoic acid [(S)-1-[(6-amino-pyridin-3-ylmethyl)-carbamoyl]-2-(2,4,5-trifluoro-phenyl)-ethyl]-amide] yielded an IC50 of 8 nM.
As for `CCC(C)[C@@H](NC)C(=O)N[C@@H](Cc1cc(F)cc(F)c1)C(=O)NCc1ccc(N)nc1` (stereo partly drawn) [Example 49, (R)-3-Methyl-2-methylamino-pentanoic acid [(S)-1-[(6-amino-pyridin-3-ylmethyl)-carbamoyl]-2-(3,5-difluoro-phenyl)-ethyl]-amide], the IC50 is 4.2 nM.
The compound `CCC(C)C(NC)C(=O)NC(Cc1c(F)c(F)c(F)c(F)c1F)C(=O)NCc1ccc(N)nc1` [Example 50, (R)-3-Methyl-2-methylamino-pentanoic acid {(S)-1-[(6-amino-pyridin-3-ylmethyl)-carbamoyl]-2-pentafluorophenyl-ethyl}-amide] came in with a half-inhibitory concentration (IC50) of 29.1 nM.
The figure for `CCC(C)[C@@H](NC)C(=O)N[C@@H](Cc1csc2ccccc12)C(=O)NCc1ccc(N)nc1` (stereo partly drawn) [Example 51, (R)-3-Methyl-2-methylamino-pentanoic acid {(S)-1-[(6-amino-pyridin-3-ylmethyl)-carbamoyl]-2-benzo[b]thiophen-3-yl-ethyl}-amide] is 0.26 nM; for `CCC(C)[C@@H](NC)C(=O)N[C@@H](Cc1ccc(C(C)(C)C)cc1)C(=O)NCc1ccc(N)nc1` (stereo partly drawn) [Example 52, (R)-3-Methyl-2-methylamino-pentanoic acid [(S)-1-[(6-amino-pyridin-3-ylmethyl)-carbamoyl]-2-(4-tert-butyl-phenyl)-ethyl]-amide] it is 24.5 nM.
The figure for `Nc1ccc(CNC(=O)[C@H](Cc2ccc(Cl)c(Cl)c2)NC(=O)[C@H]2CCCN2)cn1` [Example 55, (R)-Pyrrolidine-2-carboxylic acid [(S)-1-[(6-amino-pyridin-3-ylmethyl)-carbamoyl]-2-(3,4-dichloro-phenyl)-ethyl]-amide] is 0.7 nM; for `Nc1ccc(CNC(=O)[C@H](Cc2ccc(Cl)c(Cl)c2)NC(=O)[C@H]2CSCN2)cn1` [Example 56, (S)-Thiazolidine-4-carboxylic acid [(S)-1-[(6-amino-pyridin-3-ylmethyl)-carbamoyl]-2-(3,4-dichloro-phenyl)-ethyl]-amide] it is 7.1 nM; for `Nc1ccc(CNC(=O)[C@H](Cc2ccc(Cl)c(Cl)c2)NC(=O)[C@H](N)c2ccccc2)cn1` [Example 57, (S)-2-((R)-2-Amino-2-phenyl-acetylamino)-N-(6-amino-pyridin-3-ylmethyl)-3-(3,4-dichloro-phenyl)-propionamide] it is 4.6 nM.
In the case of `Nc1ccc(CNC(=O)[C@H](Cc2ccc(Cl)c(Cl)c2)NC(=O)[C@@H](N)c2ccccc2)cn1` [Example 58, (S)-2-((S)-2-Amino-2-phenyl-acetylamino)-N-(6-amino-pyridin-3-ylmethyl)-3-(3,4-dichloro-phenyl)-propionamide], the IC50 is 48.6 nM.
Consider `Nc1ccc(CNC(=O)[C@H](Cc2ccc(Cl)c(Cl)c2)NC(=O)[C@H]2CCCCN2)cn1` [Example 63, (R)-Piperidine-2-carboxylic acid [(S)-1-[(6-amino-pyridin-3-ylmethyl)-carbamoyl]-2-(3,4-dichloro-phenyl)-ethyl]-amide], for which the IC50 was determined as 0.66 nM.
The figure for `Nc1ccc(CNC(=O)[C@H](Cc2ccc(Cl)c(Cl)c2)NC(=O)[C@H]2Cc3ccccc3CN2)cn1` [Example 64, (R)-1,2,3,4-Tetrahydro-isoquinoline-3-carboxylic acid [(S)-1-[(6-amino-pyridin-3-ylmethyl)-carbamoyl]-2-(3,4-dichloro-phenyl)-ethyl]-amide] is 3.1 nM.

For the origin of these results see patent publication US20100076015A1, “Aminopyridine Derivatives” (VANTIA LIMITED, priority 2008, published 2010).
